# Where no end group is shown, it is not given here.
# Columns and labels:
# CD-1 mice = test: recovery of circulating blood cells after induction of leukopenia; format: in vivo, mouse; conditions: Cp-induced leukopenia, 20 or 50 mg/kg IV on Days 5, 7, 9 and 11
# Description: Leukopenia was induced with 2 IP injections of Cp (150 mg/kg on Day 1 and 100 mg/kg on Day 4), resulting in well-established leukopenia by Day 4 that persisted until approximately Day 10. Saline or RIVPA (SEQ ID NO. 5) (20 or 50 mg/kg) was administered IV on Days 5, 7, 9 and 11. Six animals per group were sacrificed on each of Days 6, 8, 10, 12 and 14 and evaluated for complete blood count and differential. Neither the levels nor dynamics of the total leukocyte and differential white blood cell counts were altered during the course of recovery when compared to the vehicle control group (FIG. 15).
# [1] = system: Gram-positive and Gram-negative infections; conditions: mouse, in vivo
# [2] = system: male Golden Syrian hamsters; test: radiation-induced oral mucositis in hamsters (fractionated radiation); format: in vivo, hamster; conditions: for duration of severe oral mucositis: fractionated radiation model
# Description: These studies confirmed that optimal dosing of RIVPA (SEQ ID NO. 5) involves dosing every third day and that the 25 mg/kg dose level is effective. In this model, cannulated male Golden Syrian hamsters were treated with 7.5 Gy of radiation, directed at the everted left cheek pouch, on Days 0, 1, 2, 3, 6, 7, 8 and 9. Mucositis was evaluated every second day between Days 7 and 35, with peak mucositis severity generally occurring around Day 19. In the first study, RIVPA (SEQ ID NO. 5) (25 mg/kg IV) was administered either every third day starting on Day 0 and continuing until Day 33 (Q3d d0-33), or on days of radiation therapy (Days 0, 1, 2, 3, […], 7, 8, 9) or every third day starting on Day 6 and continuing to Day 24 (Q3d d6-24). On days where both RIVPA (SEQ ID NO. 5) and radiation was administered, RIVPA (SEQ ID NO. 5) was given 2 hours after radiation. […] A follow-up study was undertaken to evaluate dosing with 25 mg/kg IV RIVPA (SEQ ID NO. 5) Q3d d0-33, on days of radiation, or every third day during radiation treatment (i.e., Days 0, 3, 6 and 9).
# whole blood = test: ex vivo LPS stimulation of whole blood from Phase 1 subjects; format: cell-based, human; conditions: dose range 0.15-2 mg/kg; 4 hours in vitro LPS stimulation of whole blood
# Description: In ex vivo investigations using blood samples obtained during the Phase 1 healthy human volunteer study, a number of cytokine and chemokine analytes were quantified after 4 hours of in vitro stimulation of whole blood with LPS. The inter-individual variability in analyte levels was larger than any variation in time or response to RIVPA (SEQ ID NO. 5) or placebo administration and the data were therefore self-normalized using the individual pre-dose analyte level to standardize all responses for each individual subject (the Activity Ratio). RIVPA (SEQ ID NO. 5) effects on the analyte Activity Ratios (ARs) were neither constant throughout time, nor linearly dose responsive.
substance,measurement,setting,value
"RIVPA-NH2 [RIVPA (SEQ ID NO. 5), RIVPA]",recovery of circulating blood cell populations after induction of leukopenia,CD-1 mice,did not alter
same,duration of pharmacodynamic effect,[1],up to 5 days
same,dose levels with consistent efficacy,[1]; iv,≥ 25 mg/kg
same,treatment effectiveness on mucositis,"[2]; first study, 25 mg/kg IV every third day Day 0 to Day 33 (Q3d d0-33)",most effective
same,treatment effectiveness on mucositis,"[2]; first study, 25 mg/kg IV every third day Day 6 to Day 24 (Q3d d6-24)",not beneficial
same,treatment effectiveness on mucositis,"[2]; first study, 25 mg/kg IV on days of radiation",most effective
same,treatment effectiveness on mucositis,"[2]; follow-up study, 25 mg/kg IV every third day during radiation (Days 0, 3, 6 and 9)",optimal
same,duration of severe oral mucositis,[2]; FIG. 1,reduces
same,duration of severe oral mucositis,"[2]; optimized dosing regimen, FIG. 2",reduces
same,severity and duration of mucositis,"[2]; hamster, 7.5 Gy to left cheek pouch on Days 0, 1, 2, 3, 6, 7, 8 and 9, RIVPA IV",significantly reduced
same,"anti-inflammatory status (TNF RII, IL-1ra vs TNFα, IL-1β Activity Ratios)",whole blood,evidence of an increase

# Reference: patent US11311598B2, “Peptides and analogs for use in the treatment of oral mucositis” (Soligenix, Inc., priority 2013, dated 2022)
